Measured values reported in patent US12077503B2, “Substituted cyclic amides and their use as herbicides” (FMC CORPORATION, priority 2015, dated 2024).

Legend:
Assay type in all cases: in vivo
Kochia (Kochia scoparia) [1] = assay: Test A preemergence
Summary of the method: (§1)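 Preemergence soil spray on seeded pots or post-emergence spray on 1–2 leaf plants, in loam–sand blend. Greenhouse ~10 d. Visual rating 0–100 against untreated plants.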

[2] = tested on: barnyardgrass (Echinochloa crus-galli); assay: Test A preemergence
Summary of the method: as §1

[3] = tested on: giant foxtail (Setaria faberii); assay: Test A preemergence
Summary of the method: as §1

[4] = tested on: pigweed (Amaranthus retroflexus); assay: Test A preemergence
[5] = tested on: ragweed (common ragweed, Ambrosia elatior); assay: Test A preemergence
Summary of the method: as §1

[6] = tested on: ryegrass, Italian (Italian ryegrass, Lolium multiflorum); assay: Test A preemergence
Summary of the method: as §1

[7] = tested on: Galium (catchweed bedstraw, Galium aparine); assay: Test A postemergence; conditions: postemergence, 0 to 100 scale (0 no effect, 100 complete control)
Summary of the method: as §1

Kochia (Kochia scoparia) [8] = assay: Test A postemergence; conditions: postemergence, 0 to 100 scale (0 no effect, 100 complete control)
Summary of the method: as §1

[9] = tested on: barnyardgrass (Echinochloa crus-galli); assay: Test A postemergence; conditions: postemergence, 0 to 100 scale (0 no effect, 100 complete control)
Summary of the method: as §1

[10] = tested on: blackgrass (Alopecurus myosuroides); assay: Test A postemergence; conditions: postemergence, 0 to 100 scale (0 no effect, 100 complete control)
Summary of the method: as §1

corn (Zea mays) = assay: Test A postemergence; conditions: postemergence, 0 to 100 scale (0 no effect, 100 complete control)
Summary of the method: as §1

[11] = tested on: giant foxtail (Setaria faberii); assay: Test A postemergence; conditions: postemergence, 0 to 100 scale (0 no effect, 100 complete control)
Summary of the method: as §1

[12] = tested on: pigweed (Amaranthus retroflexus); assay: Test A postemergence; conditions: postemergence, 0 to 100 scale (0 no effect, 100 complete control)
Summary of the method: as §1

[13] = tested on: ragweed (common ragweed, Ambrosia elatior); assay: Test A postemergence; conditions: postemergence, 0 to 100 scale (0 no effect, 100 complete control)
Summary of the method: as §1

[14] = tested on: ryegrass, Italian (Italian ryegrass, Lolium multiflorum); assay: Test A postemergence; conditions: postemergence, 0 to 100 scale (0 no effect, 100 complete control)
Summary of the method: as §1

[15] = tested on: wheat (Triticum aestivum); assay: Test A postemergence; conditions: postemergence, 0 to 100 scale (0 no effect, 100 complete control)
Summary of the method: as §1

[16] = tested on: barnyardgrass (Echinochloa crus-galli); assay: Test B flooded paddy test; conditions: Flood, 250 g ai/ha; 0 to 100 scale where 0 is no effect and 100 is complete control; 13 to 15 d
Summary of the method: (§2)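 Percent control, visually estimated after 13–15 d in the greenhouse on a 0–100 basis, compares treated pots with untreated ones; compound was put into paddy water 3 cm above the soil when plants had two leaves.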

[17] = tested on: ducksalad (Heteranthera limosa); assay: Test B flooded paddy test; conditions: Flood, 250 g ai/ha; 0 to 100 scale where 0 is no effect and 100 is complete control; 13 to 15 d
Summary of the method: as §2

rice (Oryra sativa) = assay: Test B flooded paddy test; conditions: Flood, 250 g ai/ha; 0 to 100 scale where 0 is no effect and 100 is complete control; 13 to 15 d
Summary of the method: as §2

[18] = tested on: sedge, umbrella (small-flower umbrella sedge, Cyperus difformis); assay: Test B flooded paddy test; conditions: Flood, 250 g ai/ha
Summary of the method: as §2

[19] = tested on: lambsquarters (Chenopodium album); assay: Test C preemergence; conditions: for Plant response rating (scale of 0 to 100), Lambsquarters: 0 is no effect, 100 is complete control; for Plant response rating, Lambsquarters: scale 0 to 100, 0 no effect, 100 complete control
Summary of the method: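 Scores of 0 to 100 reflect visual comparison with control plants, where 0 means no effect and 100 complete control, made 13 to 15 d after treatment. Application was preemergence to seeds in loam-sand soil or postemergence to plants 2 to 18 cm tall in peat-based mix, using a surfactant-containing solvent formulation.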

[20] = 125 g ai/ha, Preemergence, visual injury after approximately 10 d, 0 to 100 scale where 0 is no effect and 100 is complete control
[21] = 500 g ai/ha, preemergence, 0 to 100 scale, 0 = no effect, 100 = complete control
[22] = 125 g ai/ha, visual rating after approx. 10 d
[23] = 500 g ai/ha, visual injury, approx. 10 d
[24] = 125 g ai/ha, preemergence, visual rating after approx. 10 d, 0 to 100 scale where 0 is no effect and 100 is complete control
[25] = 125 g ai/ha, visual injury after approximately 10 d

Compound: CN1CC(c2cc(F)cc(F)c2)C(C(=O)Nc2ccc(F)c(F)c2F)C1=O (centres unmarked) [Compound 646]
- Plant response rating, Kochia (Kochia (Kochia scoparia) [1]; [20]): 60
- Plant response rating, Kochia (Kochia (Kochia scoparia) [1]; [21]): 70
- Plant response rating, Barnyardgrass [2, 20]: 90
- Plant response rating, Barnyardgrass [2, 21]: 90
- Plant response rating, Foxtail, Giant [3, 20]: 90
- Plant response rating, Foxtail, Giant [3, 21]: 100
- Plant response rating, Pigweed [4, 20]: 60
- Plant response rating, Pigweed [4, 21]: 70
- Plant response rating, Ragweed [5, 20]: 60
- Plant response rating, Ragweed [5, 21]: 70
- Plant response rating, Ryegrass, Italian [6, 20]: 60
- Plant response rating, Ryegrass, Italian [6, 21]: 90
- Plant response rating, Galium [7, 22]: 40
- Plant response rating, Galium [7, 23]: 50
- Plant response rating, Kochia (Kochia (Kochia scoparia) [8]; [22]): 60
- Plant response rating, Kochia (Kochia (Kochia scoparia) [8]; [23]): 70
- Plant response rating, Barnyardgrass [9, 22]: 90
- Plant response rating, Barnyardgrass [9, 23]: 90
- Plant response rating, Blackgrass [10, 22]: 70
- Plant response rating, Blackgrass [10, 23]: 80
- Plant response rating, Corn (corn (Zea mays); [22]): 70
- Plant response rating, Corn (corn (Zea mays); [23]): 80
- Plant response rating, Foxtail, Giant [11, 22]: 90
- Plant response rating, Foxtail, Giant [11, 23]: 90
- Plant response rating, Pigweed [12, 22]: 20
- Plant response rating, Pigweed [12, 23]: 20
- Plant response rating, Ragweed [13, 22]: 0
- Plant response rating, Ragweed [13, 23]: 40
- Plant response rating, Ryegrass, Italian [14, 22]: 60
- Plant response rating, Ryegrass, Italian [14, 23]: 70
- Plant response rating, Wheat [15, 22]: 40
- Plant response rating, Wheat [15, 23]: 70
- Plant response rating, Barnyardgrass [16]: 80
- Plant response rating, Ducksalad [17]: 98
- Plant response rating, Rice (rice (Oryra sativa)): 25
- Plant response rating, Sedge, Umbrella ([18]; 0 to 100 scale where 0 is no effect and 100 is complete control, 13 to 15 d): 0
- Plant response rating (scale of 0 to 100), Lambsquarters ([19]; 31 g ai/ha): 40
- Plant response rating, Lambsquarters ([19]; 62 g ai/ha): 60
- Plant response rating, Lambsquarters ([19]; 125 g ai/ha): 75
- Plant response rating, Lambsquarters ([19]; 250 g ai/ha): 80

Compound: CN1CC(c2ccc(C(C)(F)F)cc2)C(C(=O)Nc2cccc(F)c2F)C1=O (centres unmarked) [Compound 690]
- Plant response rating, Kochia (Kochia (Kochia scoparia) [1]; [20]): 80
- Plant response rating, Kochia (Kochia (Kochia scoparia) [1]; [21]): 90
- Plant response rating, Barnyardgrass [2, 20]: 90
- Plant response rating, Barnyardgrass [2, 21]: 90
- Plant response rating, Foxtail, Giant [3, 20]: 90
- Plant response rating, Foxtail, Giant [3, 21]: 90
- Plant response rating, Pigweed [4, 24]: 80
- Plant response rating, Pigweed [4, 21]: 90
- Plant response rating, Ragweed [5, 24]: 70
- Plant response rating, Ragweed [5, 21]: 80
- Plant response rating, Ryegrass, Italian [6, 24]: 60
- Plant response rating, Ryegrass, Italian [6, 21]: 70
- Plant response rating, Galium [7, 25]: 70
- Plant response rating, Galium [7, 23]: 70
- Plant response rating, Kochia (Kochia (Kochia scoparia) [8]; [25]): 50
- Plant response rating, Kochia (Kochia (Kochia scoparia) [8]; [23]): 70
- Plant response rating, Barnyardgrass [9, 22]: 80
- Plant response rating, Barnyardgrass [9, 23]: 80
- Plant response rating, Blackgrass [10, 22]: 60
- Plant response rating, Blackgrass [10, 23]: 70
- Plant response rating, Corn (corn (Zea mays); [25]): 70
- Plant response rating, Corn (corn (Zea mays); [23]): 80
- Plant response rating, Foxtail, Giant [11, 25]: 80
- Plant response rating, Foxtail, Giant [11, 23]: 80
- Plant response rating, Pigweed [12, 25]: 60
- Plant response rating, Pigweed [12, 23]: 70
- Plant response rating, Ragweed [13, 25]: 60
- Plant response rating, Ragweed [13, 23]: 70
- Plant response rating, Ryegrass, Italian [14, 25]: 50
- Plant response rating, Ryegrass, Italian [14, 23]: 60
- Plant response rating, Wheat [15, 25]: 50
- Plant response rating, Wheat [15, 23]: 60
- Plant response rating, Barnyardgrass [16]: 50
- Plant response rating, Ducksalad [17]: 75
- Plant response rating, Rice (rice (Oryra sativa)): 0
- Sedge, Umbrella plant response rating ([18]; scale of 0 to 100 where 0 is no effect and 100 is complete control): 0
- Plant response rating (scale of 0 to 100), Lambsquarters ([19]; 8 g ai/ha): 65
- Plant response rating (scale of 0 to 100), Lambsquarters ([19]; 16 g ai/ha): 65
- Plant response rating (scale of 0 to 100), Lambsquarters ([19]; 31 g ai/ha): 75
- Plant response rating, Lambsquarters ([19]; 62 g ai/ha): 85
